Measurements from patent US10344019B2 (priority 2010, dated 2019).
pEC50: −log10 of the molar value.

Assays:
Type in all cases: cell-based
[1] = test system: HCV 1a RLuc cells (dicistronic genotype 1a H77 replicon, RLuc reporter); assay: microbe, parasite or virus in culture; details: Hepatitis C virus, genotype 1a H77 RLuc replicon; read-out: 1a
Procedure, shortened: (§1)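 Renilla luciferase HCV replicon cells: dicistronic 1b Con1, 1a H77 or 2a JFH-1 replicons, or a JFH-1 chimera carrying J6 NS5A (M31 present). Compound in DMSO serial dilutions, 72 h incubation, then lysis and luciferase read. EC50 by non-linear regression.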

[2] = test system: HCV 1b RLuc cells (dicistronic genotype 1b Con1 replicon, RLuc reporter); assay: microbe, parasite or virus in culture; details: Hepatitis C virus, read-out: 1b (nM)
Procedure, shortened: as §1

[3] = test system: HCV 2a JFH-1 Rluc cells (dicistronic genotype 2a JFH-1 replicon, RLuc reporter); assay: microbe, parasite or virus in culture; details: Hepatitis C virus, genotype 2a JFH-1 RLuc replicon; read-out: 2a JFH
Procedure, shortened: as §1

[4] = test system: HCV 2b Rluc cells (NS5A chimeric genotype 2a JFH-1 replicon with genotype 2b MD2b-1 NS5A gene, M31 present); assay: microbe, parasite or virus in culture; details: Hepatitis C virus, read-out: 2b
Procedure, shortened: (§2)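 Replicon cells stably carrying the listed RLuc-encoding dicistronic replicons were seeded and treated with DMSO serial dilutions of compound (10 mM stocks) diluted into culture medium. After 72 h, cells were lysed and Renilla luciferase activity measured. EC50 was derived by non-linear regression.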

[5] = test system: HCV 3a RLuc cells (NS5A chimeric genotype 1b Con1 replicon with consensus genotype 3a NS5A gene); assay: microbe, parasite or virus in culture; details: Hepatitis C virus, read-out: 3a, genotype 3a NS5A chimeric replicon
Procedure, shortened: as §2

[6] = test system: Q30R in genotype 1a NS5A, 1a Rluc replicon transfected into Huh-7 cured-51 cells; assay: HCV replicon assay, resistance mutant 1a Q30R; details: Hepatitis C virus, Huh-7, read-out: 1a Q30R
Procedure: Evaluation of cell-based anti-HCV activity: Antiviral potency (EC50) was determined using a Renilla luciferase (RLuc)-based HCV replicon reporter assay. To perform the assay for genotype 1 and 2a JFH-1, HCV 1b RLuc cells (harboring a dicistronic genotype 1b Con1 replicon that encodes a RLuc reporter), or HCV 1a RLuc cells (harboring a dicistronic genotype 1a H77 replicon that encodes a RLuc reporter), or HCV 2a JFH-1 Rluc cells (harboring a dicistronic genotype 2a JFH-1 replicon that encodes a RLuc reporter) were dispensed into 384-well plates. To perform the assay for genotype 2a (with M31 present) or 2b, HCV 2a Rluc or 2b Rluc cells (both with M31 present) harboring a dicistronic NS5A chimeric genotype 2a JFH-1 replicon that encodes a RLuc reporter and either genotype 2a J6 strain NS5A gene or genotype 2b MD2b-1 NS5A gene (based on Los Alamos HCV database isolates, both with M31 present) respectively, were dispensed into 384-well plates. To perform the assay for genotype 3 and 4, HCV 3a RLuc or 4a Rluc cells harboring a dicistronic NS5A chimeric genotype 1b Con1 replicon that encodes a RLuc reporter and either a consensus genotype 3a NS5A gene or genotype 4a NS5A gene (based on Los Alamos HCV database isolates) respectively, were dispensed into 384-well plates. Compounds were re-suspended in DMSO at a concentration of 10 mM and serially diluted in DMSO either manually or using an automated pipeting instrument. Serially diluted compounds were mixed with cell culture media and added to the seeded cells. […] 72 hours later, cells were lysed and Renilla luciferase activity quantified as recommended by the manufacturer (Promega-Madison, Wis.). Non-linear regression was performed to calculate EC50 values.
To determine the antiviral potency (EC50) against resistance mutants, resistance mutations, including M28T, Q30R, Q30H, L31M, and Y93C in genotype 1a NS5A and Y93H in genotype 1b NS5A, were introduced individually into either 1a Rluc or 1b Rluc replicons described above by site directed mutagenesis. Replicon RNA of each resistant mutant was transfected into Huh-7 cured-51 cells and antiviral potency was determined on these transfected cells as described above.

[7] = test system: HCV 2a Rluc cells (NS5A chimeric genotype 2a JFH-1 replicon with genotype 2a J6 strain NS5A gene, M31 present); assay: HCV replicon reporter assay, genotype 2a J6 (M31 present); details: Hepatitis C virus, read-out: 2a J6
Procedure, shortened: as §1

Compound | pEC50 [1] | EC50 [2] | pEC50 [3] | pEC50 [4] | pEC50 [5] | pEC50 [6] | pEC50 [7]
COC(=O)N[C@H](C(=O)N1[C@@H](C)CC[C@H]1c1ncc(-c2cc3c4c(c2)OCc2cc(-c5cnc([C@@H]6C[C@H](C)CN6C(=O)[C@H](NC(=O)OC)c6ccccc6)[nH]5)cc(c2-4)OC3)[nH]1)C(C)C [Example 586] | 9.00 to 12.00 | 0.011 nM | 9.00 to 12.00 | 9.00 to 12.00 | 9.00 to 12.00 | 9.00 to 12.00 | 9.00 to 12.00
CC#Cc1cc2nc([C@@H]3CCCN3C(=O)[C@@H](NC(=O)OC)C(C)C)[nH]c2c2ccc(-c3ccc4c(ccc5nc([C@@H]6C[C@H](COC)CN6C(=O)[C@H](N)c6ccccc6)[nH]c54)c3)cc12 [Example 593] | 9.00 to 12.00 | 0.014 nM | 9.00 to 12.00 | 7.36 to 9.00 | 9.00 to 12.00 | 7.36 to 9.00 | 9.00 to 12.00
COC[C@H]1C[C@@H](c2nc3ccc4cc5c(cc4c3[nH]2)OCc2cc(-c3cnc([C@@H]4CC[C@H](C)N4C(=O)[C@@H](NC(=O)OC)C(C)C)[nH]3)ccc2-5)N(C(=O)[C@H](NC(=O)OC)c2ccccc2)C1 [Example 594] | 9.00 to 12.00 | 0.013 nM | 9.00 to 12.00 | 9.00 to 12.00 | 9.00 to 12.00 | 9.00 to 12.00 | 9.00 to 12.00
CC[C@H](C)[C@H](NC(=O)OC)C(=O)N1C[C@@H](COC)C[C@H]1c1nc2ccc3cc4c(cc3c2[nH]1)OCc1cc(-c2cnc([C@@H]3CC[C@H](C)N3C(=O)[C@@H](NC(=O)OC)[C@@H](C)CC)[nH]2)ccc1-4 [Example 597] | 9.00 to 12.00 | 0.005 nM | 9.00 to 12.00 | 9.00 to 12.00 | 9.00 to 12.00 | 9.00 to 12.00 | 9.00 to 12.00
COC[C@H]1C[C@@H](c2ncc(-c3ccc4c(c3)COc3cc5c(ccc6nc([C@@H]7C[C@H]8CC8N7C(=O)[C@H](NC(=O)OC)c7ccccc7)[nH]c65)cc3-4)[nH]2)N(C(=O)[C@@H](NC(=O)OC)C(C)C)C1 (some centres unmarked) [Example 601] | 9.00 to 12.00 | 0.014 nM | 9.00 to 12.00 | 9.00 to 12.00 | 9.00 to 12.00 | 9.00 to 12.00 | 9.00 to 12.00
COC(=O)N[C@H](C(=O)N1[C@@H](C)CC[C@H]1c1ncc(-c2ccc3c(c2)COc2cc4c(ccc5nc([C@@H]6CCCN6C(=O)[C@H](NC(=O)OC)c6ccccc6)[nH]c54)cc2-3)[nH]1)C(C)C [Example 605] | 9.00 to 12.00 | 0.015 nM | 9.00 to 12.00 | 9.00 to 12.00 | 9.00 to 12.00 | 9.00 to 12.00 | 9.00 to 12.00
COC[C@H]1C[C@@H](c2ncc(-c3ccc4c(c3)COc3cc5c(cc3-4)CCc3nc([C@@H]4CCCN4C(=O)[C@@H](NC(=O)OC)C(C)C)[nH]c3-5)[nH]2)N(C(=O)[C@H](NC(=O)OC)c2ccccc2)C1 [Example 606] | 9.00 to 12.00 | 0.034 nM | 9.00 to 12.00 | 9.00 to 12.00 | 9.00 to 12.00 | 9.00 to 12.00 | 9.00 to 12.00
COC(=O)N[C@H](C(=O)N1[C@@H](C)CC[C@H]1c1nc2ccc3cc4c(cc3c2[nH]1)OCc1cc(-c2cnc([C@@H]3C[C@H](C)CN3C(=O)[C@H](NC(=O)OC)c3ccccc3)[nH]2)ccc1-4)C(C)C [Example 609] | 9.00 to 12.00 | 0.005 nM | 9.00 to 12.00 | 9.00 to 12.00 | 9.00 to 12.00 | 9.00 to 12.00 | 9.00 to 12.00
COC[C@H]1C[C@@H](c2ncc(-c3ccc4c(c3)COc3cc5c(ccc6nc([C@@H]7CC[C@H](C)N7C(=O)[C@@H](NC(=O)OC)C(C)C)[nH]c65)cc3-4)[nH]2)N(C(=O)[C@@H](NC(=O)OC)[C@@H](C)OC)C1 [Example 610] | 9.00 to 12.00 | 0.013 nM | 9.00 to 12.00 | 9.00 to 12.00 | 9.00 to 12.00 | 9.00 to 12.00 | 9.00 to 12.00
COC[C@H]1C[C@@H](c2ncc(-c3cc4c5c(c3)OCc3cc(-c6cnc([C@@H]7C[C@H](C)CN7C(=O)[C@H](NC(=O)OC)c7ccccc7)[nH]6)cc(c3-5)OC4)[nH]2)N(C(=O)[C@@H](NC(=O)OC)C(C)C)C1 [Example 611] | 9.00 to 12.00 | 0.013 nM | 9.00 to 12.00 | 9.00 to 12.00 | 9.00 to 12.00 | 9.00 to 12.00 | 9.00 to 12.00
COC(=O)N[C@H](C(=O)N1[C@@H](C)CC[C@H]1c1nc2ccc3cc4c(cc3c2[nH]1)OCc1cc(-c2cnc([C@@H]3C[C@H](C)CN3C(=O)[C@@H](NC(=O)OC)[C@@H](C)OC)[nH]2)ccc1-4)C(C)C [Example 612] | 9.00 to 12.00 | – | 9.00 to 12.00 | 9.00 to 12.00 | 9.00 to 12.00 | 9.00 to 12.00 | 9.00 to 12.00
COC(=O)N[C@H](C(=O)N1C[C@@H](C)C[C@H]1c1ncc(-c2ccc3c(c2)COc2cc4c(ccc5nc([C@@H]6CC[C@H](C)N6C(=O)[C@@H](NC(=O)OC)C(C)C)[nH]c54)cc2-3)[nH]1)C(C)C [Example 613] | 9.00 to 12.00 | – | 9.00 to 12.00 | 9.00 to 12.00 | 9.00 to 12.00 | 9.00 to 12.00 | 9.00 to 12.00
COC[C@H]1C[C@@H](c2nc3c([nH]2)-c2cc4c(cc2CC3)-c2ccc(-c3cnc([C@@H]5CC[C@H](C)N5C(=O)[C@@H](NC(=O)OC)C(C)C)[nH]3)cc2CO4)N(C(=O)[C@H](NC(=O)OC)c2ccccc2)C1 [Example 614] | 9.00 to 12.00 | – | 9.00 to 12.00 | 9.00 to 12.00 | 9.00 to 12.00 | 9.00 to 12.00 | 9.00 to 12.00
COC[C@H]1C[C@@H](c2nc3ccc4cc5c(cc4c3[nH]2)OCc2cc(-c3cnc([C@@H]4CC[C@H](C)N4C(=O)[C@@H](NC(=O)OC)C(C)C)[nH]3)ccc2-5)N(C(=O)[C@@H](NC(=O)OC)[C@@H](C)OC)C1 [Example 615] | 9.00 to 12.00 | 0.019 nM | 9.00 to 12.00 | 9.00 to 12.00 | 9.00 to 12.00 | 9.00 to 12.00 | 9.00 to 12.00
COC(=O)N[C@H](C(=O)N1[C@@H](C)CC[C@H]1c1ncc(-c2cc3c4c(c2)OCc2cc(-c5cnc([C@@H]6CC[C@H](C)N6C(=O)[C@@H](NC(=O)OC)[C@@H](C)OC)[nH]5)cc(c2-4)OC3)[nH]1)[C@@H](C)OC [Example 616] | 9.00 to 12.00 | 0.018 nM | 9.00 to 12.00 | 9.00 to 12.00 | 9.00 to 12.00 | 9.00 to 12.00 | 9.00 to 12.00
COC(=O)N[C@H](C(=O)N1[C@@H](C)CC[C@H]1c1ncc(-c2ccc3c(c2)COc2cc4c(ccc5nc([C@@H]6C[C@H](C)CN6C(=O)[C@H](NC(=O)OC)c6ccccc6)[nH]c54)cc2-3)[nH]1)C(C)C [Example 617] | 9.00 to 12.00 | 0.005 nM | 9.00 to 12.00 | 9.00 to 12.00 | 9.00 to 12.00 | 9.00 to 12.00 | 9.00 to 12.00
COC[C@H]1C[C@@H](c2nc3ccc4cc5c(cc4c3[nH]2)OCc2cc(-c3cnc([C@@H]4CCCN4C(O)[C@@H](NC(=O)OC)[C@@H](C)OC)[nH]3)ccc2-5)N(C(=O)[C@H](NC(=O)OC)c2ccccc2)C1 (some centres unmarked) [Example 618] | 9.00 to 12.00 | 0.02 nM | 9.00 to 12.00 | 9.00 to 12.00 | 9.00 to 12.00 | 9.00 to 12.00 | 9.00 to 12.00
CC[C@H](C)[C@H](NC(=O)OC)C(=O)N1[C@@H](C)CC[C@H]1c1ncc(-c2ccc3c(c2)COc2cc4c(ccc5nc([C@@H]6C[C@H](COC)CN6C(=O)[C@H](NC(=O)OC)c6ccccc6)[nH]c54)cc2-3)[nH]1 [Example 637] | 9.00 to 12.00 | – | 9.00 to 12.00 | 9.00 to 12.00 | 9.00 to 12.00 | 9.00 to 12.00 | 9.00 to 12.00
